Results reported in article PMC10354055, “An optimized Nurr1 agonist provides disease-modifying effects in Parkinson’s disease models” (Nature Communications, 2023).
Several values for one entry are separate records, joined by “and”; a condition that tells them apart may be missing. Equal values may be shown once. Read-outs that look alike come from different tables or passages of the source.

Columns and labels:
[1] = system: MPTP-induced male mice; test: IHC/stereology of TH+ fibers, TH+ DA neurons and NeuN+ neurons, MPTP-induced mice; type: in vivo, mouse
Method: MPTP (Sigma-Aldrich) was intraperitoneally (i.p.) injected (30 mg/kg) for 5 days (Day 1-5). […] To test dyskinetic involuntary behavior, an L-DOPA injected group was included, which received 50 mg/kg of L-DOPA and 15 mg/kg of benserazide (Sigma-Aldrich) (i.p.) for 16 days (Day 1–16). All compounds were administered 6 h post-MPTP injection to avoid any effect of compounds on the MPTP metabolism in the brain. Motor and non-motor related behavior tests were performed on the following days as described in Fig. 4a in an assessor- and observer-blinded fashion. Pre-training and baseline setup for motor-related behaviors were performed 3 days prior to the injections. Mice were sacrificed and subjected to immunohistochemistry. Mice were housed at the Animal Care Facilities of McLean Hospital under a 12-h light/12-h dark cycle, ambient temperature and humidity. Animals were handled in accordance with McLean Hospital’s Institutional Animal Care and Use Committee (Protocol #: 2015N000002) and followed National Institutes of Health guidelines.
Images were acquired using a KEYENCE microscope and quantified as the number or optical density of immunoreactive cells using ImageJ software.
The numbers of TH^+ DA neurons, NeuN^+ neurons, pS129 αSyn^+ cells in the SN and Iba-1^+ microglia in the SN and striatum were stereologically counted in six coronal sections (30 µm thickness) taken every 6th section (180 µm intervals) for each brain. The boundaries of the SN and striatum were delimited at low magnification (4X) to estimate each total area. Immunoreactive cells were counted with images taken at high magnification (×40) by a single blinded investigator. The group mean of the total number of immunoreactive cells from each brain was transformed as percentage of the number in the control group (%). For AAV-αSyn-induced mice, the group mean of the total number of cells in the ipsilateral side was transformed as a percentage of that observed in the contralateral side.

[2] = target: T1, Nurr1-LBD point mutants (Mus musculus, UniProt Q06219, I573A); test: Luciferase assay with point-mutants of Nurr1-LBD, SK-N-BE(2)C cells;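 note: Firefly luciferase normalized to beta-galactosidase activity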; type: cell-based; details: Fig. 1g, I573A
T1 construct: expressed in transfected cells; host or cells: SK-N-BE(2)C
Method: (§1) Nurr1 transactivity was normalized to β-galactosidase activity.
(§2) Nurr1 mutants were generated using the QuikChange ǁ XL site-directed mutagenesis kit (Agilent Technologies) according to the manufacturer’s instruction. Mutagenesis reactions were carried out on the plasmid of mouse Nurr1 cloned into pcDNA3.1 backbone, and then verified by sequencing.

[3] = target: T2, Nurr1-LBD point mutants (Mus musculus, UniProt Q06219, I588A); test: as above; type: cell-based; details: Fig. 1g, I588A
T2 construct: expressed in transfected cells; host or cells: SK-N-BE(2)C
Method: as §1, §2

[4] = target: T3, Nurr1-LBD point mutants (Mus musculus, UniProt Q06219, L593A); test: as above; type: cell-based; details: Fig. 1g, L593A
T3 construct: expressed in transfected cells; host or cells: SK-N-BE(2)C
Method: as §1, §2

[5] = BBB permeability assay, plasma and brain LC-MS/MS after oral administration; type: in vivo, rat;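 for plasma: oral dosing solution 2 mg/mL in saline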
Method: Final dose of […] 4A7C-301 dissolved in saline was orally administrated to SD rats (male, 7-9 weeks, n = 3 per group). To measure the 4A7C-301 concentration in the brain, rats were fully exsanguinated to remove residual blood prior to brain collection. Brain and blood samples were collected at 0.25, 0.5, 1, 2, 4, 6, 8, and 24 h after administration. A robust LC-MS/MS method was developed with the lower limit of quantification (LLOQ) of 1 ng/mL and 0.5 ng/mL for the quantification of 4A7C-301 in plasma and brain, respectively. The accuracy of all accepted QC samples of 4A7C-301 at low, middle, and high concentration levels met the acceptance criteria. Isolated brains were homogenized in PBS as brain weight (g) to PBS volume (mL) ratio 1:3. The desired serial concentrations of working solutions were achieved by diluting stock solution of analyte with 50% acetonitrile in water solution. 5 µL of working solutions (5, 10, 20, 50, 100, 500, 1000, 5000 ng/mL) were added to 50 μl of male SD rat blank brain homogenate to achieve calibration standards of 0.5 ~ 500 ng/mL (0.5, 1, 2, 5, 10, 50, 100, 500 ng/mL) in a total volume of 55 μl. Four quality control samples at 1.5 ng/mL, 3 ng/mL, 50 ng/mL and 400 ng/mL for brain homogenate were prepared independently of those used for the calibration curves. These QC samples were prepared on the day of analysis in the same way as calibration standards. 55 μl of standards, 55 μl of QC samples and 55 μl of unknown samples (50 µL of brain homogenate with 5 µL of blank solution) were added to 200 μl of acetonitrile containing IS mixture for precipitating protein, respectively. Then the samples were vortexed for 30 seconds. After centrifugation at 4 °C, 4000 x g for 15 min, the supernatant was diluted 5 times with water. 25 µl of diluted supernatant was injected into the LC-MS/MS system (AB API 5500 + LC-MS/MS instruments (Serial No. EX224682008)) for quantitative analysis. To measure the 4A7C-301 concentration in the plasma, serum samples were obtained from the collected blood and analyzed by LC-MS/MS system as indicated above.

[6] = target: T4, Nor1 (Homo sapiens, UniProt Q92570); test: Luciferase reporter assay, Nor1 LBD, SK-N-BE(2)C cells; type: cell-based; details: Fig. 1f; CQ 100 µM, 4A7C-301 20 µM, PGA1 10 µM
T4 construct: using LBD of NR4A subfamily members in SK-N-BE(2)C cells; expressed in transfected cells; host or cells: SK-N-BE(2)C

[7] = time 00:15:00, individual replicates
[8] = time 0:30:00, individual replicates
[9] = time 1:00:00, individual replicates
[10] = time 2:00:00, individual replicates
[11] = time 4:00:00, individual replicates
[12] = time 6:00:00, individual replicates
[13] = time 8:00:00, individual replicates
[14] = time 24:00:00, individual replicates

T2 sequence (Q06219 whole entry I588A, the tested form may be a part): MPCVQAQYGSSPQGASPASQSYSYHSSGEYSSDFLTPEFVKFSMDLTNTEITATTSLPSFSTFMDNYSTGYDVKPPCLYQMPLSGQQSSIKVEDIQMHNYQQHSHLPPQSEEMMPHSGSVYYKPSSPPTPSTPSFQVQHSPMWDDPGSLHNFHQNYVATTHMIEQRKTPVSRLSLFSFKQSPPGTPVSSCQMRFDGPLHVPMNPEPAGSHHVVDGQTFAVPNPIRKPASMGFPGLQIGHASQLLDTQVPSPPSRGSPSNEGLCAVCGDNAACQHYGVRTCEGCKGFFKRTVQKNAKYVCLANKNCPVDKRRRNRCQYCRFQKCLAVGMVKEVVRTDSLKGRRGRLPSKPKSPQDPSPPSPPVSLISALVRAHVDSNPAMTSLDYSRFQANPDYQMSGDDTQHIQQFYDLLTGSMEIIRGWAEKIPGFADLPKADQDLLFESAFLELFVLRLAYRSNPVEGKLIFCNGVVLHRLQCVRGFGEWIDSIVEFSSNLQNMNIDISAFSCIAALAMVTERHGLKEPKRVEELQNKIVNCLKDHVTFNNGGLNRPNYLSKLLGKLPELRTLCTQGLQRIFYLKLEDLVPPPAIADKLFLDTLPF
T4 sequence (Q92570 394-623 limits assumed): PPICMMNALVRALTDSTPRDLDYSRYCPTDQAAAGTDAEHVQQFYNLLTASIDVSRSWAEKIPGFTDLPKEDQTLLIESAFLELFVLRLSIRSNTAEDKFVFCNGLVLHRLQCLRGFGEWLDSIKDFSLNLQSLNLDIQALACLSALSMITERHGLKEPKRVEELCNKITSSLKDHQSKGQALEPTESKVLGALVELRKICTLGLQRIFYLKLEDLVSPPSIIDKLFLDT
T1 sequence (Q06219 whole entry I573A, the tested form may be a part): as the sequence (Q06219 whole entry I588A, the tested form may be a part) above, with I573A, A588I counted along it
T3 sequence (Q06219 whole entry L593A, the tested form may be a part): as the sequence (Q06219 whole entry I588A, the tested form may be a part) above, with A588I, L593A counted along it

Question: Which results are given for `CCN1CCN(c2cc(N3CCN(CC)CC3)nc(NCCNc3ccnc4cc(Cl)ccc34)n2)CC1` [4A7C-301, N^1-(4,6-bis(4-ethylpiperazin-1-yl)pyrimidin-2-yl)-N^2-(7-chloroquinolin-4-yl)ethane-1,2-diamine]?
Answer: TH+ neurons in SNpc (% of control) ([1]; Figure 4j, MPTP-induced mice, individual animal values): 63.18 % of control and 108.74 % of control and 134.92 % of control and 132.65 % of control and 112.51 % of control and 66.45 % of control and 53.87 % of control; NeuN+ neurons in SNpc (% of control) ([1]; Figure 4k, MPTP-induced mice, individual animal values): 85.48 % of control and 97.85 % of control and 98.38 % of control and 115.18 % of control; TH fiber density in STR (% of control) ([1]; Figure 4h, MPTP-induced mice, individual animal values): 116.18 % of control and 48.63 % of control and 93.47 % of control and 82.29 % of control and 106.49 % of control and 100.23 % of control and 91.26 % of control; TH+ fibers in STR, TH+ DA neurons and NeuN+ neurons in SN (in words) ([1]; compared to MPTP only group): significantly retained; Luciferase activity (fold) [2]: 1.906 fold and 2.068 fold and 2.015 fold and 1.962 fold; Luciferase activity (fold) [3]: 2.735 fold and 2.747 fold and 2.797 fold and 2.7361 fold; Luciferase activity (fold) [4]: 5.7 fold and 5.711 fold and 5.709 fold and 5.928 fold; brain permeability (in words) ([5]; SD rats, oral, 20 mg/kg, plasma and brain homogenates): penetrated into the brain well; concentration at […] ([5]; male, SD, rat, brain, oral, 2 mg/mL, time 00:15:00, individual replicates, read-out: Brain): 0 ng/g; concentration at 0.5 h ([5]; male, SD, rat, brain, oral, 2 mg/mL, time 0:30:00, individual replicates, read-out: Brain): 0 ng/g; concentration at 8 h ([5]; male, SD, rat, brain, oral, 2 mg/mL, time 8:00:00, individual replicates): 28.7 ng/g; concentration at […] ([5]; male, SD, rat, plasma, oral, 2 mg/mL, time 00:15:00, individual replicates, read-out: Plasma): 0 ng/mL; concentration at 0.5 h ([5]; male, SD, rat, plasma, oral, 2 mg/mL, time 0:30:00, individual replicates, read-out: Plasma): 0 ng/mL; Brain [5, 7]: 0 ng/g; Plasma [5, 7]: 0 ng/mL; Brain [5, 8]: 0 ng/g; Plasma [5, 8]: 0 ng/mL; B/P ratio [5, 9]: 0.033 and 0.167 and 0.126; Brain [5, 9]: 3.39 ng/g and 9.12 ng/g and 2.65 ng/g; Plasma [5, 9]: 20.3 ng/mL and 72.3 ng/mL and 80.8 ng/mL; B/P ratio [5, 10]: 0.395 and 0.077 and 0.505; Brain [5, 10]: 7.24 ng/g and 13.5 ng/g and 6 ng/g; Plasma [5, 10]: 94 ng/mL and 26.7 ng/mL and 15.2 ng/mL; B/P ratio [5, 11]: 0.137 and 0.126 and 1.648; Brain [5, 11]: 27.2 ng/g and 13.5 ng/g and 7.16 ng/g; Plasma [5, 11]: 216 ng/mL and 8.18 ng/mL and 52.2 ng/mL; B/P ratio [5, 12]: 0.074 and 0.166 and 2.055; Brain [5, 12]: 19.9 ng/g and 24 ng/g and 4.36 ng/g; Plasma [5, 12]: 120 ng/mL and 11.7 ng/mL and 58.6 ng/mL; B/P ratio [5, 13]: 0.112 and 3.845 and 0.261; Brain [5, 13]: 16.8 ng/g and 20.2 ng/g; Plasma [5, 13]: 7.47 ng/mL and 64.3 ng/mL and 180 ng/mL; B/P ratio [5, 14]: 10.245 and 0.957 and 6.289; Brain [5, 14]: 61.6 ng/g and 20 ng/g and 36 ng/g; Plasma [5, 14]: 64.4 ng/mL and 3.18 ng/mL and 3.51 ng/mL; Luciferase activity (fold), Nor1 [6]: 3.28 fold and 3.108 fold and 3.492 fold
